The assay concerns the target T1, Aryl Hydrocarbon Receptor (AHR) (Homo sapiens, UniProt P35869).
T1 sequence (P35869 11-848): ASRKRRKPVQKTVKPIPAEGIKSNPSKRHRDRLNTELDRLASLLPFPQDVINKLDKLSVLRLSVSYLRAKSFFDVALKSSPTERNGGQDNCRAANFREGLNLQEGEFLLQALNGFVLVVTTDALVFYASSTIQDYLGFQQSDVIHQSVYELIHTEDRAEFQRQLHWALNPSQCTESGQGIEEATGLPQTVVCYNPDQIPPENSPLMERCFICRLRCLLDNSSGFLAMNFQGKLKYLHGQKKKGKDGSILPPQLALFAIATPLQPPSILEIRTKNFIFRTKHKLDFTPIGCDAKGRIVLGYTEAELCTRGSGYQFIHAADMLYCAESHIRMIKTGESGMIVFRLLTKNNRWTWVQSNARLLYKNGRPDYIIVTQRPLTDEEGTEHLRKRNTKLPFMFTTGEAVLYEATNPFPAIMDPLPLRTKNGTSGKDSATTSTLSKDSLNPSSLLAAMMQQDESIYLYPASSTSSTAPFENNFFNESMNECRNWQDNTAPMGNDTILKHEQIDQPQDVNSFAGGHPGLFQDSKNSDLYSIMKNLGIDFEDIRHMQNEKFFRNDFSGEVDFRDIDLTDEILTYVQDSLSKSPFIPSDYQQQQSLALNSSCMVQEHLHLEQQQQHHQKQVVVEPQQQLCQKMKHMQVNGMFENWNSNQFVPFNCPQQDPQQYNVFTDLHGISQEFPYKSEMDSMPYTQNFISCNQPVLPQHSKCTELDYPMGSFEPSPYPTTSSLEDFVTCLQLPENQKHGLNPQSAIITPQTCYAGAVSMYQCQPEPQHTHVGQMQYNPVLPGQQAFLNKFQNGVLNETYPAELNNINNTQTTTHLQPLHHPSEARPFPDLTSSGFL
Description: AHR luciferase reporter activation ([…]) in THP-1, Caco-2 and EA.hy926 cells. It is filed as cell-based.

Structures are written as SMILES.

For `O=C1/C(=C2\Nc3ccccc3C2=O)Nc2ccccc21` [indigo], the “AHR luciferase reporter activation (1 uM) in THP-1, Caco-2 and EA.hy926 cells” value is “AHR activation in THP-1 observed upon exposure to indigo, a known AHR agonist”.

Source of the values: paper PMC12820960, “Lactucopicrin: A Sesquiterpene Lactone with Anti-Inflammatory Activity Modulates the Crosstalk between NF-kB and AHR Pathways” (Journal of Medicinal Chemistry, 2025).
